Columns and labels:
Assay in all cases: relative viability (nuclei count vs DMSO), 5 days (fraction); higher = more cells survive
Mirin + Pictilisib = compound: N=C1NC(=O)/C(=C/c2ccc(O)cc2)S1 [Mirin] + CS(=O)(=O)N1CCN(Cc2cc3nc(-c4cccc5[nH]ncc45)nc(N4CCOCC4)c3s2)CC1 [Pictilisib] (partner 1 µM)
Procedure, shortened: (§1)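 Relative viability was taken as the ratio of nuclei in treated wells to nuclei in vehicle wells. Lung cancer cell lines in 1536-well plates received compounds by pin tool one day after seeding, either one drug alone or a fixed anchor-drug dose plus five library-drug doses (not always all listed) in √10 steps. Nuclei were counted on 4× images after 5 days of treatment, and values are medians of duplicate plates.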

Mirin + Decitabine = compound: N=C1NC(=O)/C(=C/c2ccc(O)cc2)S1 [Mirin] + Nc1ncn([C@H]2C[C@H](O)[C@@H](CO)O2)c(=O)n1 [Decitabine] (partner 2 µM)
Procedure, shortened: as §1

[1] = compound: CCC1=CN=CN=C1N2CCN(CC2)CC3=NC4=C(N3)C=C(C=C4)C(F)(F)F + CS(=O)(=O)CCNCc1ccc(-c2ccc3ncnc(Nc4ccc(OCc5cccc(F)c5)c(Cl)c4)c3c2)o1 [Lapatinib] (partner 2 µM)
Procedure, shortened: as §1

[2] = compound: CCC1=CN=CN=C1N2CCN(CC2)CC3=NC4=C(N3)C=C(C=C4)C(F)(F)F + CS(=O)(=O)N1CCN(Cc2cc3nc(-c4cccc5[nH]ncc45)nc(N4CCOCC4)c3s2)CC1 [Pictilisib] (partner 1 µM)
Procedure, shortened: as §1

Cell Line	relative viability (Mirin + Pictilisib; first compound 0.25 µM)	relative viability (Mirin + Pictilisib; first compound 2.5 µM)	relative viability (Mirin + Pictilisib; first compound 7.906 µM)	relative viability (Mirin + Pictilisib; first compound 25 µM)	relative viability (Mirin + Decitabine; first compound 0.25 µM)	relative viability (Mirin + Decitabine; first compound 2.5 µM)	relative viability (Mirin + Decitabine; first compound 7.906 µM)	relative viability (Mirin + Decitabine; first compound 25 µM)	relative viability ([1]; first compound 0.04 µM)	relative viability ([1]; first compound 0.1265 µM)	relative viability ([1]; first compound 0.4 µM)	relative viability ([1]; first compound 1.265 µM)	relative viability ([1]; first compound 4 µM)	relative viability ([2]; first compound 0.04 µM)	relative viability ([2]; first compound 0.1265 µM)	relative viability ([2]; first compound 0.4 µM)	relative viability ([2]; first compound 1.265 µM)	relative viability ([2]; first compound 4 µM)	relative viability (Mirin + Pictilisib; first compound 0.7906 µM)	relative viability (Mirin + Decitabine; first compound 0.7906 µM)
NCI-H23	0.483	0.385	0.367	0.373	0.298	0.292	0.295	0.284	1.2	1.21	0.966	0.982	1.11	0.58	0.439	0.41	0.348	0.432		
NCI-H322M	0.5	0.492	0.567	0.583	0.674	0.725	0.705	0.614	0.631	0.571	0.575	0.499	0.682	0.581	0.484	0.507	0.381	0.524	0.419	0.712
NCI-H358	0.357	0.415	0.315	0.323	0.238	0.242	0.169	0.177	0.477	0.399	0.428	0.337	0.387	0.4	0.282	0.349	0.289	0.359	0.288	0.194
NCI-H460	0.347	0.347	0.333	0.235	0.517	0.467	0.505	0.539	1.09	0.973	0.878	0.812	0.936	0.41	0.291	0.36	0.224	0.395	0.152	0.504
NCI-H520	0.275	0.274	0.202	0.181	0.531	0.494	0.374	0.479	0.846	0.862	0.857	0.588	0.729	0.326	0.28	0.238	0.255	0.279	0.284	0.563
NCI-H596	0.447	0.43	0.361	0.345	1.03	1	0.993	0.998	0.982	1.13	0.927	0.817	1.23	0.399	0.366	0.396	0.327	0.413	0.391	1.2
NCI-H647	0.413	0.417		0.295	0.446	0.361	0.401	0.387	1.27	1.04		0.802	1.09		0.433			0.399		0.423
NCI-H650	0.835	0.945		0.744	0.32	0.306	0.294	0.354	0.73	0.762	1.21	1.01	1.06	0.875	0.82	0.983	0.736	0.841		0.335
NCI-H661		0.499		0.332	0.587	0.539	0.501	0.525	0.646	0.437	0.411		0.475	0.358	0.402	0.412		0.366	0.329	0.569
NCI-H727	0.353	0.458	0.501	0.515	0.603	1	0.865	0.922	0.82	0.799	0.802		0.741	0.521	0.377	0.29		0.382	0.443	0.83
NCI-H838	0.465	0.562	0.54	0.421	0.432	0.517	0.424	0.361	1.09	0.876	0.92	0.692	1.03	0.507	0.531	0.41	0.258	0.482	0.398	0.424
NCI-H1355	0.48	0.419	0.427	0.505	0.365	0.391	0.38	0.365	1	0.812	0.952	0.844	1.1	0.541	0.414	0.361	0.293	0.453	0.254	0.367
NCI-H1395	0.578	0.617	0.549	0.512	0.721	0.814	0.741	0.66	0.929	0.938	1.04	0.957	1.05	0.59	0.553	0.619	0.572	0.646		
NCI-H1437	0.525	0.487	0.272	0.165	0.571	0.606	0.647	0.555	0.777	0.668	0.74	0.635	0.641	0.511	0.404	0.395	0.336	0.439	0.436	0.559
NCI-H1650	0.576	0.592	0.447	0.385	0.479	0.403	0.31	0.364	0.721	0.797	0.711	0.39	0.645	0.525	0.586	0.558	0.306	0.818	0.494	0.385
NCI-H1651	0.62	0.573	0.488	0.554	0.259	0.657	0.536	0.612	0.839	0.827	0.818	0.787	0.87	0.625	0.607	0.487	0.65	0.675	0.597	0.577
NCI-H1666	0.445	0.365	0.36	0.324	0.543	0.76	0.654	0.692	0.625	0.579	0.482	0.544	0.616	0.569	0.402	0.417	0.498	0.501	0.64	0.676

Cell Line	relative viability (Mirin + Pictilisib; first compound 0.25 µM)	relative viability (Mirin + Pictilisib; first compound 2.5 µM)	relative viability (Mirin + Pictilisib; first compound 7.906 µM)	relative viability (Mirin + Pictilisib; first compound 25 µM)	relative viability (Mirin + Decitabine; first compound 0.25 µM)	relative viability (Mirin + Decitabine; first compound 2.5 µM)	relative viability (Mirin + Decitabine; first compound 7.906 µM)	relative viability (Mirin + Decitabine; first compound 25 µM)	relative viability ([1]; first compound 0.04 µM)	relative viability ([1]; first compound 0.1265 µM)	relative viability ([1]; first compound 0.4 µM)	relative viability ([1]; first compound 1.265 µM)	relative viability ([1]; first compound 4 µM)	relative viability ([2]; first compound 0.04 µM)	relative viability ([2]; first compound 0.1265 µM)	relative viability ([2]; first compound 0.4 µM)	relative viability ([2]; first compound 1.265 µM)	relative viability ([2]; first compound 4 µM)	relative viability (Mirin + Pictilisib; first compound 0.7906 µM)	relative viability (Mirin + Decitabine; first compound 0.7906 µM)
NCI-H1734	0.427	0.445	0.444	0.394	0.479	0.565	0.491	0.419	1.03	1.07	1.08		1.04	0.387	0.449	0.431		0.473	0.376	0.493
NCI-H1755	0.475	0.479	0.395	0.356	0.725	0.703	0.717	0.752	1.07	0.93	0.981	0.924	1.1	0.384	0.377	0.372	0.19	0.371	0.336	0.775
NCI-H1792	0.269	0.294	0.262	0.259	0.5	0.665	0.516	0.573	0.769	0.808	0.851	0.978	0.884	0.361	0.3	0.215	0.188	0.25	0.303	0.504
NCI-H1793	0.387	0.236	0.311	0.482	0.472	0.434	0.52	0.48	0.581	0.652	0.534		0.635	0.329	0.304	0.428		0.328	0.327	
NCI-H1915	0.98	1.04	0.916	0.935	0.275	0.278	0.255	0.255	0.927	0.89	0.995	0.957	1.06	0.916	0.899	0.931	0.687	0.963		0.252
NCI-H1944	0.346	0.328	0.335	0.359	0.426	0.489	0.425	0.436	0.976	0.691	0.767		0.875	0.361	0.335	0.325		0.328		0.471
NCI-H1975	0.307	0.302	0.355	0.282	0.427	0.402	0.36	0.401	1.16	0.824	0.851	0.739	0.846	0.311	0.307	0.268	0.287	0.288	0.251	0.329
NCI-H1993	0.748	0.893	0.818	0.782	0.656	0.663	0.525	0.551	0.777	0.842	0.69	0.8	0.747	0.837	0.808	0.708	0.765	0.834	0.698	0.46
NCI-H2009	0.919	0.871	0.66	0.6	0.354	0.425	0.361	0.405	1.07	1	0.894	0.715	0.808	0.821	0.824	0.826	0.514	0.544	0.706	0.373
NCI-H2023	0.252	0.19	0.29	0.214	0.237	0.216	0.228	0.225	0.716	0.765	0.749	0.527	0.763	0.274	0.225	0.216	0.192	0.319	0.258	0.238
NCI-H2085	0.417	0.484	0.462	0.468	0.562	0.546	0.553	0.604	0.713	0.704	0.797	0.571	0.784	0.468	0.426	0.412	0.296	0.429	0.398	0.537
NCI-H2087	0.833	0.818	0.708	0.788	0.245	0.286	0.24	0.208	1.07	0.963	1.08	0.914	0.818	0.852	0.906	0.883	0.819	0.653	0.669	0.215
NCI-H2126	0.533	0.465	0.456	0.448	0.556	0.586	0.557	0.461	0.772	0.713	0.708	0.736	0.838	0.518	0.496	0.493	0.442	0.496	0.406	0.534
NCI-H2170	0.327	0.281	0.247	0.253	0.462	0.45	0.415	0.411	0.277	0.263	0.267	0.27	0.296	0.303	0.304	0.274	0.289	0.325	0.217	0.483
NCI-H2347	0.564	1.71	0.749	0.595	0.595	0.604	0.604	0.611	1.06	0.793	0.985	0.828	1.1	0.58	0.591	0.652		0.671	0.622	0.599
NCI-H2405	0.465	0.401	0.307	0.317	0.72	0.691	0.725	0.708	1.04	1.17	1.11		1.2	0.486	0.379	0.43		0.575	0.51	
